Article PMC3826612 (Talanta, 2013)

Target: acetylcholinesterase from Electrophorus electricus (eelAChE) immobilized on magnetic beads (Electrophorus electricus, UniProt O42275)
Test: Ligand fishing assay using eelAChE-MB
Type: binding
Details: 100 nM reference compounds, individually and as a mixture

Sequence of acetylcholinesterase from Electrophorus electricus (eelAChE) immobilized on magnetic beads (O42275 24-633): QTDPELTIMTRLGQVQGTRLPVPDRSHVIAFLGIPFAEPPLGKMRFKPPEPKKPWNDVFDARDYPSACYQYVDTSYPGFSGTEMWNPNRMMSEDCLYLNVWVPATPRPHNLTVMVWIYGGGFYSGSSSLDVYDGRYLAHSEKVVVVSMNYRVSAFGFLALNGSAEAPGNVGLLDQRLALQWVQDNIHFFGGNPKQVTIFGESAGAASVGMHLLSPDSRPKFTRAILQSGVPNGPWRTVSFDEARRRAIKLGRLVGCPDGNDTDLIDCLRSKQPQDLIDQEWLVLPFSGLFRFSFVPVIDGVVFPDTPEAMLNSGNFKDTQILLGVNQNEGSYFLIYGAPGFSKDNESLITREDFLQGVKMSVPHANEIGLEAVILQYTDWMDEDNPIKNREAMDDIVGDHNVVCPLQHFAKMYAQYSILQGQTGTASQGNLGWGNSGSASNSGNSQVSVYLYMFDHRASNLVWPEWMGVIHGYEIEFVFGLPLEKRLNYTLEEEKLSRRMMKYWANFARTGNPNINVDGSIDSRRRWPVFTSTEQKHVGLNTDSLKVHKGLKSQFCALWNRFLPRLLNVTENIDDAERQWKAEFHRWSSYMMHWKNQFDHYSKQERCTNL

| SMILES | Presence in supernatants S-1 (unbound) and S-2 (eluted) |
| --- | --- |
| CNC1(c2ccccc2Cl)CCCCC1=O (centres unmarked) [ketamine] | only present in S-1 |
| CC(CCc1ccccc1)NCC(O)c1ccc(O)c(C(N)=O)c1 (centres unmarked) [labetalol] | only present in S-1 |
